Measurements taken from patent publication US20170239212A1, “[…] AND USE THEREOF AS ANTIVIRAL AGENTS” (priority 2014, published 2017).
Read-outs that look alike come from different tables or passages of the source.

Experiments:
[1] = tested on: HIV long terminal repeat (LTR) promoter; test: HOS LTR stimulation assay (luciferase reporter); assay type: cell-based; conditions: HOS cells
Method: In the assay, non T cell derived human osteosarcoma (HOS) cells are transfected with a luciferase reporter under control of an HIV long terminal repeat (LTR) promoter. Compounds that stimulate the HIV LTR promoter will produce luciferase in a dose dependent manner.
(§1) Specifically, EC50 and CC50 values were determined in parallel using 10 concentrations of compound from 3 fold serial dilutions starting a 5 uM as the highest concentration. Cells and media were added to compounds with a final concentration of DMSO of 1% and incubated at 37° C., 5% CO2 for 24, 48 and 72 hours. EC50 was measured by induced luciferase activity detected by the use of the Steady-Glo® Luciferase reagent (PROMEGA) with an EnVision (Perkin-Elmer) plate reader. CC50 was determined by the dose dependent knock down of cellular ATP detected by the use of CellTiter-Glo® Luminescent Cell Viability reagent (PROMEGA) with an EnVision (Perkin-Elmer) plate reader.
The error bars represent the average and the standard error of the mean of at least three independent experiments.

[2] = tested on: human osteosarcoma (HOS) cells; test: HOS cell viability (CellTiter-Glo, cellular ATP); assay type: cell-based; set-up: unit not given here; conditions: knock down of cellular ATP
Method: as §1

[3] = tested on: HIV long terminal repeat (LTR) promoter; test: cells; assay type: cell-based; conditions: Jurkat cells; for EC50: Human immunodeficiency virus 1, LTR-luciferase, incubated 24, 48 and 72 hours (time of the listed values not stated); for selectivity ratio: human; for selectivity ratio / Selectivity (CC50:EC50): ratio of the CC50 to the EC50
Method: as §1, with “The compounds were also tested in the T cell derived Jurkat cell line transfected with a luciferase reporter under control of an HIV long terminal repeat (LTR) promoter. Specifically,” for “Specifically,”

[4] = in vitro; assay type: cell-based; conditions: human; Jurkat cells, knock down of cellular ATP
Method: as §1, with “The compounds were also tested in the T cell derived Jurkat cell line transfected with a luciferase reporter under control of an HIV long terminal repeat (LTR) promoter. Specifically,” for “Specifically,”

[5] = tested on: U937 cells; test: Inhibition of U937 cell proliferation; assay type: cell-based, human
Method: (§2) U937 cells (Sundstrom, C.; Nilsson, K.: Establishment and characterization of a human histiocytic lymphoma cell line (U-937). Int. J. Cancer 1976, 17: 565-577), purchased from ATCC (Manassas, Va.) and cultured in RPMI-1640 medium supplemented with 10% FBS (ATCC, Manassas, Va.), were plated in 35 mm dishes at a density of 2×10^5 living cells/ml and treated with different concentrations of the drugs or DMSO. After 72 hours, the number of cells in the supernatant (non-attached cells) and the number of attached cells (after trypsinization) were counted using a Beckman particle counter (Beckman Coulter Inc., Fullerton, Calif.). The number of attached cells is expressed as percent of total cells (FIGS. 8-10).
(§3) U937 cells were treated with PMA (0.1-100 nM), bryostatin 1 (1-1000 nM), the indicated compound (1-1000 nM), 10 nM PMA with different concentrations of bryostatin 1 (1-1000 nM) or 10 nM PMA with different concentrations of indicated compound (1-1000 nM). The number of attached and non-attached cells was counted and the number of total cells was expressed as % of control. The bars and error bars represent the average and the standard error of the mean of five independent experiments (FIGS. 8-10).
(§4) U937 cells (Sundstrom and Nilsson, 1976), purchased from ATCC (Manassas, Va.) and cultured in RPMI-1640 medium supplemented with 10% FBS (ATCC, Manassas, Va.), were plated in 35 mm dishes at a density of 1×10^5 living cells/ml and treated with different concentrations of the drugs or DMSO. After 72 hours, the number of cells in the supernatant (non-attached cells) and the number of attached cells (after trypsinization) were counted using a particle counter. The number of attached cells is expressed as percent of total cells.
(§5) U937 cells were treated with PMA (0.01-100 nM), bryostatin 1 (0.1-1000 nM), analogue 12 (MERLE 28) (0.1-1000 nM), 10 nM PMA with different concentrations of bryostatin 1 (0.1-1000 nM) or 10 nM PMA with different concentrations of analogue 12 (0.1-1000 nM). The numbers of attached and non-attached cells were counted and the number of total cells was expressed as % of control. The bars and error bars represent the average and the standard error of the mean of at least three independent experiments.
as §4
as §3, with “at least three” for “five”, “experiments.” for “experiments (FIGS. 8-10).”

[6] = tested on: U937 cells; test: Attachment of U937 cells; assay type: cell-based, human; conditions: 72 hours
Method: as §2
(§6) U937 cells were treated with PMA (0.1-100 nM), bryostatin 1 (1-1000 nM), the indicated compound (1-1000 nM), 10 nM PMA with different concentrations of bryostatin 1 (1-1000 nM) or 10 nM PMA with different concentrations of indicated compound (1-1000 nM) for 72 hours. The number of attached cells and total cells were counted and the attached cells were graphed as percent of total cells. The bars and error bars represent the average and the standard error of the mean of five independent experiment (FIGS. 8-10).
as §4
as §5, with “number” for “numbers”, “attached cells” for “attached”, “total” for “non-attached”, “attached cells were graphed as percent” for “number”, “cells.” for “cells was expressed as % of control.”
as §4
as §6, with “at least three” for “five”, “experiments.” for “experiment (FIGS. 8-10).”

[7] = ester bond, 2,4,6-trichlorobenzoyl chloride / Et3N / DMAP, toluene, 40.0 °C, 14.0 h
[8] = 10 nM PMA with different concentrations of compound

C=C1C[C@@H]2C[C@@H]3CC(=C)C[C@H](/C=C/C(C)(C)[C@]4(O)O[C@@H](C/C(=C\C(=O)OC)[C@@H]4OC(=O)/C=C/C=C/CCC)C[C@H]([C@@H](C)O)OC(=O)C[C@H](O)C[C@H](C1)O2)O3 [MERLE 23]
Max signal (% of control) ([1]; LTR-luciferase signal): 166 % of control | Conc (uM) at Max ([1]; concentration at maximal LTR-luciferase signal): 0.07 µM | EC50 ([1]; Human immunodeficiency virus 1, LTR-luciferase, incubated 24, 48 and 72 hours (time of the listed values not stated), read-out: EC50): 0.002 µM | CCEC50 [2]: 39.57 | EC50 [3]: 0.0002 µM | selectivity ratio [3]: 25 | CC50 [4]: 0.005 µM

C=C1CC2C[C@@H](O)CC(=O)O[C@@H]([C@@H](C)O)C[C@@H]3C/C(=C\C(=O)OC)[C@H](OC(C)=O)[C@@](O)(O3)C(C)(C)/C=C/[C@H]3CC(=C)C[C@@H](C[C@@H](C1)O2)O3 [MERLE 35]
EC50 [3]: 0.01 µM | Selectivity (CC50:EC50) [3]: greater than one | selectivity ratio [3]: 5 | CC50 [4]: 0.05 µM

C=C1C[C@H]2CC3(O)O[C@H](C[C@@H](O)CC(=O)O[C@@H]([C@@H](C)O)C[C@@H]4C/C(=C\C(=O)OC)[C@H](OC(=O)/C=C/C=C/CCC)[C@@](O)(O4)C(C)(C)/C=C/[C@@H](C1)O2)C[C@H](OC(C)=O)C3(C)C [MERLE 28]
Block of PMA inhibition of U937 cell proliferation [5, 8]: Both of these aspects of bryostatin 1 induced biological response are captured | Inhibition of U937 cell proliferation (total cells as % of control) ([5]; compound alone, 72 hours): very similar to those for bryostatin 1 | Block of PMA-induced attachment of U937 cells [6, 8]: blocks the effect of the phorbol ester when the two agents are administered together | Attachment of U937 cells (attached cells as percent of total) ([6]; compound alone): approaches that of bryostatin 1 itself

C=C1C[C@@H]2C[C@@H]3CC(=C)C[C@H](/C=C/C(C)(C)[C@]4(OC)O[C@@H](C/C(=C\C(=O)OC)[C@@H]4OC(=O)/C=C/C=C/CCC)C[C@H]([C@@H](C)OCOCc4ccccc4)OC(=O)C[C@H](OCc4ccc(OC)cc4)C[C@H](C1)O2)O3
ring closure, yield of all isomers ([7]; from C=C1C[C@H](C[C@@H]2CC(=C)C[C@H](/C=C/C(C)(C)[C@]3(OC)O[C@H](C[C@@H](O)[C@@H](C)OCOCc4ccccc4)C/C(=C\C(=O)OC)[C@@H]3OC(=O)/C=C/C=C/CCC)O2)O[C@H](C[C@H](CC(=O)O)OCc2ccc(OC)cc2)C1, 0.74 mM, 2 steps): 52%

C=C1C[C@@H]2C[C@@H]3CC(=C)C[C@H](/C=C/C(C)(C)[C@]4(OC)O[C@@H](C/C(=C\C(=O)OC)[C@@H]4OC(C)=O)C[C@H]([C@@H](C)OCOCc4ccccc4)OC(=O)C[C@H](OCc4ccc(OC)cc4)C[C@H](C1)O2)O3
ring closure, yield of all isomers ([7]; from C=C1C[C@H](C[C@@H]2CC(=C)C[C@H](/C=C/C(C)(C)[C@]3(OC)O[C@H](C[C@@H](O)[C@@H](C)OCOCc4ccccc4)C/C(=C\C(=O)OC)[C@@H]3OC(C)=O)O2)O[C@H](C[C@H](CC(=O)O)OCc2ccc(OC)cc2)C1, 0.97 mM, 2 steps): 58%

C=C1CC2C[C@@H](O)CC(=O)O[C@@H]([C@@H](C)O)C[C@@H]3C/C(=C\C(=O)OC)[C@H](OC(=O)CCCCCN(C)C)[C@@](O)(O3)C(C)(C)/C=C/[C@H]3CC(=C)C[C@@H](C[C@@H](C1)O2)O3 [MERLE 37]
EC50 [3]: 0.08 µM | Selectivity (CC50:EC50) [3]: greater than one | selectivity ratio [3]: 6.9 | CC50 [4]: 0.55 µM

C=C1C[C@H]2C[C@]3(OC)O[C@H](C[C@@H](O[Si](CC)(CC)CC)CC(=O)O[C@@H]([C@@H](C)OCOCc4ccccc4)C[C@@H]4C/C(=C\C(=O)OC)[C@H](OC(=O)/C=C/C=C/CCC)[C@@](OC)(O4)C(C)(C)/C=C/[C@@H](C1)O2)C[C@H](OC(C)=O)C3(C)C
ring closure, yield of all isomers ([7]; from C=C1C[C@@H](C[C@]2(OC)O[C@H](C[C@H](CC(=O)O)O[Si](CC)(CC)CC)C[C@H](OC(C)=O)C2(C)C)O[C@@H](/C=C/C(C)(C)[C@]2(OC)O[C@H](C[C@@H](O)[C@@H](C)OCOCc3ccccc3)C/C(=C\C(=O)OC)[C@@H]2OC(=O)/C=C/C=C/CCC)C1, 0.62 mM, 2 steps): 62%

C=C1C[C@H]2C[C@H]3C[C@@H](O[Si](CC)(CC)CC)C[C@@H](C[C@@H](OCc4ccc(OC)cc4)CC(=O)O[C@@H]([C@@H](C)OCOCc4ccccc4)C[C@@H]4C/C(=C\C(=O)OC)[C@H](OC(=O)CCCCCCC)[C@@](OC)(O4)C(C)(C)/C=C/[C@@H](C1)O2)O3
ring closure, yield of all isomers ([7]; from C=C1C[C@@H](C[C@H]2C[C@@H](O[Si](CC)(CC)CC)C[C@@H](C[C@H](CC(=O)O)OCc3ccc(OC)cc3)O2)O[C@@H](/C=C/C(C)(C)[C@]2(OC)O[C@H](C[C@@H](O)[C@@H](C)OCOCc3ccccc3)C/C(=C\C(=O)OC)[C@@H]2OC(=O)CCCCCCC)C1, 0.79 mM): 91%

C=C1C[C@@H]2C[C@@H]3CC(=C)C[C@H](/C=C/C(C)(C)[C@]4(OC)O[C@@H](CCC4=O)C[C@H]([C@@H](C)OCOCc4ccccc4)OC(=O)C[C@H](OCc4ccc(OC)cc4)C[C@H](C1)O2)O3
ring closure, yield of all isomers ([7]; from C=C1C[C@H](C[C@@H]2CC(=C)C[C@H](/C=C/C(C)(C)[C@]3(OC)O[C@H](C[C@@H](O)[C@@H](C)OCOCc4ccccc4)CCC3=O)O2)O[C@H](C[C@H](CC(=O)O)OCc2ccc(OC)cc2)C1, 0.85 mM, 2 steps): 87%
